Legend:
[1] = biological target: T1, human ERα (Homo sapiens, UniProt P03372); test: IL-6 luciferase (IL6-luc) assay in ERα infected HAECT-1 cells; type: cell-based; settings: for IC50: ERα infected HAECT-1 cells, IL-1β, Ad5-IL-6(1250 bp).Luc virus, 15-20 h; for IL6-luc (% E2): efficacy relative to E2, value in parentheses after the IC50
T1 construct: expressed in transfected cells; host or cells: HAECT-1 cells (immortalized human aortic endothelial cells) infected with Ad5-wt-hERα adenovirus
T1 sequence (P03372 1-595): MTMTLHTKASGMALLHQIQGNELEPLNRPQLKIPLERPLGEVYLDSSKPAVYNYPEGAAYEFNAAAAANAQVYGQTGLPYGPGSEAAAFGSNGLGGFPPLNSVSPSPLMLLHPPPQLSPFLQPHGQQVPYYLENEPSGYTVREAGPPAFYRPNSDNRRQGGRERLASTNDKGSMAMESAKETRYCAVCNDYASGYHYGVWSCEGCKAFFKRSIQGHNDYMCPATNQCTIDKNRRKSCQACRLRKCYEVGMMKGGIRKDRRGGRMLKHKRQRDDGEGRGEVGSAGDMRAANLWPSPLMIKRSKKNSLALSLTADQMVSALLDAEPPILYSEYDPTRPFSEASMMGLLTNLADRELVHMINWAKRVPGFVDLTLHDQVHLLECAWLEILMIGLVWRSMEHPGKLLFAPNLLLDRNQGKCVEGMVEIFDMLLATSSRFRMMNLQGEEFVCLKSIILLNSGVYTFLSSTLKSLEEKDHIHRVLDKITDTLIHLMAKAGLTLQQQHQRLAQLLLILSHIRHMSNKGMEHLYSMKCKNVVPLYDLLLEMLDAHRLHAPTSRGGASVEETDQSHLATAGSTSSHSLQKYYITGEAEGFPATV
Description: (§1) After four hours, cells were washed with EBM-BSA and incubated overnight in the same medium. Following overnight incubation, cells were washed with EBM-BSA and infected for 2 hours with 6 ml of a 1:10 dilution of Ad5-3x(NFκB).Luc virus (Adenovirus luciferase expression vector driven by 3 repeats of the MHC NFκb site 5′ to the thymidine kinase promoter) in EBM-BSA. After two hours, cells were washed and incubated at 34° C. for 1 hour. […] Control (no ER infection) cells were processed as above without Ad5-wt-hERα virus infection.
(§2) ERα infected HAECT-1 cells or control cells were thawed, diluted 42× in warm EBM-BSA, plated into 96-well plates at 0.1 ml/well and incubated for 4 h at 34° C. […] After 15-20 h, cells are lysed with 50 ul of Promega Cell Culture Lysis reagent for ˜5 min at room temp on shaker. After lysing, 15 ul of lysate is transferred to luminometer plates for luciferase determination. […] Creatine kinase was determined from the rate of increase in A340 following addition of 100 uL of CK assay reagent (Sigma, cat. No 47-10) to the remainder of the cell lysate.
(§3) For IC50 and EC50 calculations, mean IL-6, luciferase or CK values versus log10 of the compound concentration were fitted to a four parameter logistic equation. The IC50/EC50 value, ‘Hill slope’, upper and lower limits of the curve were iteratively estimated.

[2] = biological target: T1, human ERα; test: Creatine kinase (CK) assay in ERα infected HAECT-1 cells; type: cell-based; settings: for EC50: creatine kinase in lysate of ERα infected HAECT-1 cells; for CK (% E2): efficacy relative to E2, value in parentheses after the EC50
Description: as §1, §2, §3

| SMILES | IC50 [1] [nM] | IL6-luc (% E2) [1] [%] | melting point [°C] | EC50 [2] [nM] | CK (% E2) [2] [%] |
| --- | --- | --- | --- | --- | --- |
| CC[C@H]1c2cc(F)ccc2-c2ccccc2N1C(=O)c1ccc(O)cc1 [Example 19, 4-{[(6S)-6-ethyl-8-fluorophenanthridin-5(6H)-yl]carbonyl}phenol] | 85 | 88 | 103 to 104 |  |  |
| COc1cc(C(=O)N2c3ccccc3-c3ccc(F)cc3[C@H]2C)ccc1O [Example 17, 4-{[(6R)-8-fluoro-6-methylphenanthridin-5(6H)-yl]carbonyl}-2-methoxyphenol] | 364 | 113 |  |  |  |
| C[C@H]1c2cc(F)ccc2-c2ccccc2N1C(=O)c1cccc(O)c1 [Example 2, 3-{[(6S)-8-fluoro-6-methylphenanthridin-5(6H)-yl]carbonyl}phenol] | 38 | 53 |  |  |  |
| C[C@@H]1c2cc(F)ccc2-c2ccccc2N1C(=O)c1ccc(O)c(F)c1 [Example 9, 2-fluoro-4-{[(6R)-8-fluoro-6-methylphenanthridin-5(6H)-yl]carbonyl}phenol] | 31 | 81 |  |  |  |
| C[C@@H]1c2cc(F)ccc2-c2ccccc2N1C(=O)c1ccc(O)cc1F [Example 5, 3-fluoro-4-{[(6R)-8-fluoro-6-methylphenanthridin-5(6H)-yl]carbonyl}phenol] | 9 | 97 |  |  |  |
| C[C@H]1c2cc(F)ccc2-c2ccccc2N1C(=O)c1ccc(O)cc1F [Example 6, 3-fluoro-4-{[(6S)-8-fluoro-6-methylphenanthridin-5(6H)-yl]carbonyl}phenol] | 403 | 90 |  |  |  |
| C[C@@H]1c2cc(F)ccc2-c2ccccc2N1C(=O)c1ccc(Cl)c(O)c1 [Example 11, 2-chloro-5-{[(6R)-8-fluoro-6-methylphenanthridin-5(6H)-yl]carbonyl}phenol] | 271 | 107 |  | 307 | −29 |
| C[C@H]1c2cc(F)ccc2-c2ccccc2N1C(=O)c1ccc(O)cc1 [Example 3, 4-{[(6S)-8-fluoro-6-methylphenanthridin-5(6H)-yl]carbonyl}phenol] | 414 | 114 |  |  |  |
| C[C@@H]1c2cc(F)ccc2-c2ccccc2N1C(=O)c1cc(O)ccc1Br [Example 15, 4-bromo-3-{[(6R)-8-fluoro-6-methylphenanthridin-5(6H)-yl]carbonyl}phenol] | 301 | 76 |  |  |  |
| C[C@H]1c2cc(F)ccc2-c2ccccc2N1C(=O)c1ccc(O)c(F)c1 [Example 10, 2-fluoro-4-{[(6S)-8-fluoro-6-methylphenanthridin-5(6H)-yl]carbonyl}phenol] | 1470 | 68 |  |  |  |
| CC[C@@H]1c2cc(F)ccc2-c2ccccc2N1C(=O)c1ccc(O)cc1 [Example 20, 4-{[(6R)-6-ethyl-8-fluorophenanthridin-5(6H)-yl]carbonyl}phenol] | 6 | 95 | 105 to 106 |  |  |
| C[C@@H]1c2cc(F)ccc2-c2ccccc2N1C(=O)c1ccc(O)cc1 [Example 1, 4-{[(6R)-8-fluoro-6-methylphenanthridin-5(6H)-yl]carbonyl}phenol] | 5 | 100 |  |  |  |
| CCC1c2cc(F)ccc2-c2ccccc2N1C(=O)c1ccc(O)cc1F (racemic) [Example 23, 4-[(6-ethyl-8-fluorophenanthridin-5(6H)-yl)carbonyl]-3-fluorophenol] | 1 | 107 | 109 to 111 |  |  |
| C[C@@H]1c2cc(F)ccc2-c2ccccc2N1C(=O)c1cccc(O)c1 [Example 4, 3-{[(6R)-8-fluoro-6-methylphenanthridin-5(6H)-yl]carbonyl}phenol] | 47 | 102 | 162 |  |  |
| C[C@@H]1c2cc(F)ccc2-c2ccccc2N1C(=O)c1cc(O)ccc1F [Example 7, 4-fluoro-3-{[(6R)-8-fluoro-6-methylphenanthridin-5(6H)-yl]carbonyl}phenol] | 263 | 70 |  |  |  |
| C[C@@H]1c2cc(F)ccc2-c2ccccc2N1C(=O)c1ccc(O)c(Br)c1 [Example 13, 2-bromo-4-{[(6R)-8-fluoro-6-methylphenanthridin-5(6H)-yl]carbonyl}phenol] | 51 | 102 |  |  |  |
| C[C@H]1c2cc(F)ccc2-c2ccccc2N1C(=O)c1cc(O)ccc1Br [Example 16, 4-bromo-3-{[(6S)-8-fluoro-6-methylphenanthridin-5(6H)-yl]carbonyl}phenol] | 832 | 91 |  |  |  |

The next lines start with the values.

| IC50 [1] [nM] | IL6-luc (% E2) [1] [%] | melting point [°C] | EC50 [2] [nM] | CK (% E2) [2] [%] | SMILES |
| --- | --- | --- | --- | --- | --- |
| 272 | 88 | 182 to 184 |  |  | C[C@H]1c2ccccc2-c2ccc(F)cc2N1C(=O)c1ccc(O)cc1O (single isomer, unassigned) [Example 41] |
| 377 | 49 |  |  |  | C[C@H]1c2ccccc2-c2ccc(Cl)cc2N1C(=O)c1cccc(O)c1 [Example 26, 3-{[(6S)-3-chloro-6-methylphenanthridin-5(6H)-yl]carbonyl}phenol] |
|  |  | 165 to 165.9 |  |  | CC1c2ccccc2-c2ccc(Cl)cc2N1C(=O)c1ccc(O)cc1 (racemic) [Example 27, 4-[(3-chloro-6-methylphenanthridin-5(6H)-yl)carbonyl]phenol] |
| 1.5 | 147 | 138 to 140 |  |  | C[C@@H]1c2cc(F)ccc2-c2ccc(F)cc2N1C(=O)c1ccc(O)cc1 (single isomer, unassigned) [Example 43] |
| 3 | 87 |  |  |  | C[C@@H]1c2ccccc2-c2ccc(Cl)cc2N1C(=O)c1ccc(O)cc1O [Example 31, 4-{[(6R)-3-chloro-6-methylphenanthridin-5(6H)-yl]carbonyl}benzene-1,3-diol] |
| 789 | 125 |  |  |  | C[C@H]1c2ccccc2-c2ccc(Cl)cc2N1C(=O)c1ccc(O)cc1O [Example 32, 4-{[(6S)-3-chloro-6-methylphenanthridin-5(6H)-yl]carbonyl}benzene-1,3-diol] |
| 1000 | 75 | 273.7 to 276 |  |  | C[C@H]1c2ccccc2-c2ccc(Cl)cc2N1C(=O)c1ccc(O)cc1 [Example 29, 4-{[(6S)-3-chloro-6-methylphenanthridin-5(6H)-yl]carbonyl}phenol] |
| 11 | 188 |  |  |  | C[C@@H]1c2ccccc2-c2ccc(F)cc2N1C(=O)c1cccc(O)c1 (single isomer, unassigned) [Example 34] |
|  |  | 176.2 to 177.9 |  |  | CC1c2ccccc2-c2ccc(Cl)cc2N1C(=O)c1cccc(O)c1 (racemic) [Example 24, 3-[(3-chloro-6-methylphenanthridin-5(6H)-yl)carbonyl]phenol] |
|  |  | 134.5 to 135 |  |  | CC1c2ccccc2-c2ccc(F)cc2N1C(=O)c1ccc(O)cc1 (racemic) [Example 36, 4-[(3-fluoro-6-methylphenanthridin-5(6H)-yl)carbonyl]phenol] |
| 9 | 103 |  | 141 | 26 | C[C@@H]1c2ccccc2-c2ccc(Cl)cc2N1C(=O)c1cccc(O)c1 [Example 25, 3-{[(6R)-3-chloro-6-methylphenanthridin-5(6H)-yl]carbonyl}phenol] |
|  |  | 163.9 to 165 |  |  | CC1c2ccccc2-c2ccc(F)cc2N1C(=O)c1cccc(O)c1 (racemic) [Example 33, 3-[(3-fluoro-6-methylphenanthridin-5(6H)-yl)carbonyl]phenol] |
|  |  | 236.6 to 237.8 |  |  | C[C@H]1c2ccccc2-c2ccc(F)cc2N1C(=O)c1ccc(O)cc1 (single isomer, unassigned) [Example 38] |
| 130 | 132 | 135 to 138 |  |  | C[C@H]1c2cc(F)ccc2-c2ccc(F)cc2N1C(=O)c1ccc(O)cc1 (single isomer, unassigned) [Example 44] |
